Holding throughout (assay type): physicochemical
A short description of series [1]: Bulk stability of crystalline form C under stress conditions (HPLC, XRPD, color). The settings on record: for Color / Purity (HPLC) Initial purity:99.9%: 1 week. On the procedure:
Crystalline form C was placed in an open container at 25°C/92.5% RH, in an open container at 40°C/75% RH, and in a closed container at 60°C for 1 week, respectively. After exposure to the stress conditions, the samples were characterized by XRPD and HPLC, and examined for color changes.
Reference is made to Experimental Method 6 for the HPLC conditions.

A short description of series [2]: Approximate solubility of crystalline form C in dissolution media by visual observation. The settings on record: thermodynamic from solid, 37°C per table caption (method: 25°C). How it is done:
About 4 mg of crystalline form C was weighed into a 4 mL or 8 mL glass vial, and 4 to 9 mL of dissolution medium was added to dissolve the drug substance at 25°C. The approximate solubility was determined by visual observation.
The solvents and solubility results are shown in Table 11 (solubility of crystalline form C at 37°C).

A short description of series [3]: Dry grinding simulation experiment (XRPD). As to conditions: manually ground for 1, 3, and 5 minutes, mortar and pestle. On the procedure:
About 5 mg of crystalline form C was manually ground for 1, 3, and 5 minutes using a mortar and pestle. Potential changes in form and crystallinity were evaluated by XRPD.
The XRPD results of the dry grinding simulation experiments are shown in Fig. 11, where GSE1, GSE2, and GSE3 represent experiment IDs for grinding for 1 minute, 3 minutes, and 5 minutes, respectively.

The nature of series [4]: Compression simulation experiment (XRPD). The settings on record: compressed for 5 minutes at 2 MPa, 5 MPa, and 10 MPa. On the procedure:
About 5 mg of crystalline form C was compressed for 5 minutes at 2 MPa, 5 MPa, and 10 MPa using a hydraulic press. Potential changes in form and crystallinity were evaluated by XRPD.
The XRPD results of the compression simulation experiments are shown in Fig. 10, where CSE1, CSE2, and CSE3 represent experiment IDs for pressures of 2 MPa, 5 MPa, and 10 MPa, respectively.

[5] abbreviates: BS1: Solid state, 25°C/92.5% RH, open container.
[6] abbreviates: BS2: Solid state, 40°C/75% RH, open container.
[7] abbreviates: BS3: Solid state, 60°C, closed container.

Values after ≈ are worked out from the molar mass of the structure shown.

As a reminder, the solubility is the concentration that dissolves in the medium under given conditions. For the molecule `C[C@@H]1CC[C@H](C(=O)O)CN1C(=O)Cc1ccc(F)cc1Cl` [Crystalline form C, (3S,6R)-1-(2-(2-chloro-4-fluorophenyl)acetyl)-6-methylpiperidine-3-carboxylic acid], the Color entry in series [1] (setting [5]), in series [1] (setting [6]) and in series [1] (setting [7]) was “No color change” each time. In addition, the “Purity (HPLC) Initial purity:99.9%” value in series [1] (setting [5]), in series [1] (setting [6]) and in series [1] (setting [7]) was 99.9% throughout. Moreover, in series [1] (from HPLC and XRPD results after 1 week stress), the bulk stability result is “high bulk stability both physically and chemically”. In addition, the solubility in series [2] (aqueous buffer, ES2: pH 4.5 acetate buffer (50mM)) was 900 to 1000 µg/mL (≈ 2.87 to 3.19 mM); in series [2] (aqueous buffer, ES3: pH 6.8 phosphate buffer (50mM)) it was 1800 to 2000 µg/mL (≈ 5.74 to 6.37 mM); in series [2] (simulated gastric fluid, ES1: pH 1.2 HCl buffer (0.2N)), 500 to 600 µg/mL (≈ 1.59 to 1.91 mM); in series [2] (simulated gastric fluid, ES4: SGF, pH 2.0), 400 to 500 µg/mL (≈ 1.27 to 1.59 mM); in series [2] (ES5: FaSSIF-v1, pH 6.5), 1800 to 2000 µg/mL (≈ 5.74 to 6.37 mM); in series [2] (ES6: FeSSIF-v1, pH 5.0), 1800 to 2000 µg/mL (≈ 5.74 to 6.37 mM). Besides, the solubility in series [2] (ES7: Water) was 600 to 700 µg/mL (≈ 1.91 to 2.23 mM). Moreover, in series [3], the “change in form and crystallinity on grinding” value is recorded as “no change in form, but its crystallinity decreased significantly”. Moreover, in series [4], the “change in form and crystallinity on compression” value is on record as “without any change in form or apparent decrease in crystallinity”.
